Measurements as given in patent US9237744B2, “Preservative solution for cells, tissues and organs containing rare sugar and preservative method thereof” (NATIONAL UNIVERSITY CORPORATION KAGAWA UNIVERSITY, priority 2004, dated 2016).

System: human sperms
Test: Survival rate of frozen and thawed sperms, 0.5% Eosin Y dying
Assay type: cell-based
Conditions: freeze-preservative solution using D-allose, liquid nitrogen 1 month (FIG. 17)
Experimental: Semens of ten healthy men who were 24 to 44 years old (mean: 29.9) with normal semens were used.
The semen was manually collected after abstinence for 3 to 5 days, liquefied at room temperature, and then washed and concentrated by a 80% Percoll liquid agitation density gradient method. The resulting sperm turbid solution (0.2 ml) and the freeze-preservative solution were mixed in equal amounts, and the mixture was charged into a freezing tube (serum tube, Sumitomo Bakelite), frozen by a liquid nitrogen vapor freezing method, and then preserved in a liquid nitrogen tank. The freeze-preservative solution (refer to FIG. 14) was used such that the mixing amounts of D-allose and D-glucose were changed (A group=1:0, B group=3:1, C group=1:1, D group=1:3, E group=0:1) without changing the number of moles of the sugar in a KS-II sperm preservative solution. One month later, the frozen sperms were thawed in warm water (30° C.) with shaking. Further, for removal of the freeze-preservative solution and reconcentration, the density gradient centrifugation method was conducted, and the resulting sperm floating solution was examined.
As the examination method, the sperm movement rate was measured by a visual observation method with Makler Counting Chamber and C-IMAGING SYSTEMS, and the survival rate was measured by 0.5% Eosin Y dying. […]

Q: `O=C[C@H](O)[C@H](O)[C@H](O)[C@H](O)CO` [D-allose] was tested. Which “survival rate of thawed sperms” value did it give?
A: did not show a clear effect
